Test results published in ChEMBL document CHEMBL3044779, “The action of herbicides on fatty acid biosynthesis and elongation in barley and cucumber” (Pest Manag Sci, 2010).
Activity calls are given as the source filed them. The calls are words filed in the database; no cut-off is given here.

Legend:
[1] = tested on: Cucumis sativus; experiment: Inhibition of fatty acid synthesis in Cucumis sativus (cucumber) using [14C]acetate assessed as reduction in [14C]-labeled 24C fatty acid level at 100 uM after 3 hr by liquid scintillation counting relative to control; type: functional, organism-based
[2] = tested on: Hordeum vulgare; experiment: Inhibition of fatty acid synthesis in Hordeum vulgare (barley) using [14C]malonate assessed as [14C]-labeled 24C fatty acid level at 100 uM after 3 hr by liquid scintillation counting (reference value: 20 +/- 1.2%); type: functional; parameters: scale not given: the % may be the effect or the level left
[3] = tested on: Hordeum vulgare; experiment: Inhibition of fatty acid synthesis in Hordeum vulgare (barley) using [14C]acetate assessed as [14C]-labeled 24C fatty acid level at 100 uM after 3 hr by liquid scintillation counting (reference value: 5 +/- 0.8%); type: functional; parameters: scale not given: the % may be the effect or the level left
[4] = tested on: Cucumis sativus; experiment: Inhibition of fatty acid synthesis in Cucumis sativus (cucumber) using [14C]malonate assessed as [14C]-labeled 22C fatty acid level at 100 uM after 3 hr by liquid scintillation counting (reference value: 48.5 +/- 6.4%); type: functional; parameters: scale not given: the % may be the effect or the level left
[5] = tested on: Cucumis sativus; experiment: Inhibition of fatty acid synthesis in Cucumis sativus (cucumber) using [14C]acetate assessed as [14C]-labeled 22C fatty acid level at 100 uM after 3 hr by liquid scintillation counting (reference value: 25.5 +/- 2%); type: functional; parameters: scale not given: the % may be the effect or the level left
[6] = tested on: Hordeum vulgare; experiment: Inhibition of fatty acid synthesis in Hordeum vulgare (barley) using [14C]malonate assessed as [14C]-labeled 26C fatty acid level at 100 uM after 3 hr by liquid scintillation counting (reference value: 8.3 +/- 0.4%); type: functional; parameters: scale not given: the % may be the effect or the level left
[7] = tested on: Cucumis sativus; experiment: Inhibition of fatty acid synthesis in Cucumis sativus (cucumber) using [14C]malonate assessed as [14C]-labeled 24C fatty acid level at 100 uM after 3 hr by liquid scintillation counting (reference value: 9 +/- 2.5%); type: functional; parameters: scale not given: the % may be the effect or the level left
[8] = tested on: Hordeum vulgare; experiment: Inhibition of fatty acid synthesis in Hordeum vulgare (barley) using [14C]malonate assessed as [14C]-labeled 22C fatty acid level at 100 uM after 3 hr by liquid scintillation counting (reference value: 31.3 +/- 1.6%); type: functional; parameters: scale not given: the % may be the effect or the level left
[9] = tested on: Hordeum vulgare; experiment: Inhibition of fatty acid synthesis in Hordeum vulgare (barley) using [14C]acetate assessed as [14C]-labeled 22C fatty acid level at 100 uM after 3 hr by liquid scintillation counting (reference value: 8.3 +/- 0.9%); type: functional; parameters: scale not given: the % may be the effect or the level left
[10] = tested on: Cucumis sativus; experiment: Inhibition of fatty acid synthesis in Cucumis sativus (cucumber) using [14C]malonate assessed as [14C]-labeled 20C fatty acid level at 100 uM after 3 hr by liquid scintillation counting (reference value: 11.5 +/- 3%); type: functional; parameters: scale not given: the % may be the effect or the level left
[11] = tested on: Cucumis sativus; experiment: Inhibition of fatty acid synthesis in Cucumis sativus (cucumber) using [14C]acetate assessed as [14C]-labeled 20C fatty acid level at 100 uM after 3 hr by liquid scintillation counting (reference value: 9 +/- 0.9%); type: functional; parameters: scale not given: the % may be the effect or the level left
[12] = tested on: Hordeum vulgare; experiment: Inhibition of fatty acid synthesis in Hordeum vulgare (barley) using [14C]malonate assessed as [14C]-labeled 20C fatty acid level at 100 uM after 3 hr by liquid scintillation counting (reference value: 14.5 +/- 1.7%); type: functional; parameters: scale not given: the % may be the effect or the level left
[13] = tested on: Hordeum vulgare; experiment: Inhibition of fatty acid synthesis in Hordeum vulgare (barley) using [14C]acetate assessed as [14C]-labeled 20C fatty acid level at 100 uM after 3 hr by liquid scintillation counting (reference value: 3.8 +/- 0.6%); type: functional; parameters: scale not given: the % may be the effect or the level left
[14] = tested on: Cucumis sativus; experiment: Inhibition of fatty acid synthesis in Cucumis sativus (cucumber) using [14C]malonate assessed as [14C]-labeled 18C fatty acid level at 100 uM after 3 hr by liquid scintillation counting (reference value: 22.5 +/- 2.2%); type: functional; parameters: scale not given: the % may be the effect or the level left
[15] = tested on: Cucumis sativus; experiment: Inhibition of fatty acid synthesis in Cucumis sativus (cucumber) using [14C]acetate assessed as [14C]-labeled 18C fatty acid level at 100 uM after 3 hr by liquid scintillation counting (reference value: 26.6 +/- 1.6%); type: functional; parameters: scale not given: the % may be the effect or the level left
[16] = tested on: Hordeum vulgare; experiment: Inhibition of fatty acid synthesis in Hordeum vulgare (barley) using [14C]malonate assessed as [14C]-labeled 18C fatty acid level at 100 uM after 3 hr by liquid scintillation counting (reference value: 22.8 +/- 2.7%); type: functional; parameters: scale not given: the % may be the effect or the level left
[17] = tested on: Hordeum vulgare; experiment: Inhibition of fatty acid synthesis in Hordeum vulgare (barley) using [14C]acetate assessed as [14C]-labeled 18C fatty acid level at 100 uM after 3 hr by liquid scintillation counting (reference value: 53.7 +/- 0.7%); type: functional; parameters: scale not given: the % may be the effect or the level left
[18] = tested on: Cucumis sativus; experiment: Inhibition of fatty acid synthesis in Cucumis sativus (cucumber) using [14C]malonate assessed as [14C]-labeled 16C fatty acid level at 100 uM after 3 hr by liquid scintillation counting (reference value: 8.5 +/- 1.4%); type: functional; parameters: scale not given: the % may be the effect or the level left
[19] = tested on: Cucumis sativus; experiment: Inhibition of fatty acid synthesis in Cucumis sativus (cucumber) using [14C]acetate assessed as [14C]-labeled 16C fatty acid level at 100 uM after 3 hr by liquid scintillation counting (reference value: 31.9 +/- 5%); type: functional; parameters: scale not given: the % may be the effect or the level left
[20] = tested on: Hordeum vulgare; experiment: Inhibition of fatty acid synthesis in Hordeum vulgare (barley) using [14C]malonate assessed as [14C]-labeled 16C fatty acid level at 100 uM after 3 hr by liquid scintillation counting (reference value: 3.1 +/- 0.6%); type: functional; parameters: scale not given: the % may be the effect or the level left
[21] = tested on: Hordeum vulgare; experiment: Inhibition of fatty acid synthesis in Hordeum vulgare (barley) using [14C]acetate assessed as [14C]-labeled 16C fatty acid level at 100 uM after 3 hr by liquid scintillation counting (reference value: 29.2 +/- 2.1%); type: functional; parameters: scale not given: the % may be the effect or the level left
[22] = tested on: Cucumis sativus; experiment: Inhibition of fatty acid synthesis in Cucumis sativus (cucumber) assessed as inhibition of [14C]malonate incoporation in total fatty acids at 100 uM measured as total disintegration per g of fresh weight after 3 hr by liquid scintillation counting (reference value: 7.6 +/- 1.6%); type: functional
[23] = tested on: Cucumis sativus; experiment: Inhibition of fatty acid synthesis in Cucumis sativus (cucumber) assessed as inhibition of [14C]acetate incoporation in total fatty acids at 100 uM measured as total disintegration per g of fresh weight after 3 hr by liquid scintillation counting (reference value: 12.1 +/- 1.4%); type: functional
[24] = tested on: Hordeum vulgare; experiment: Inhibition of fatty acid synthesis in Hordeum vulgare (barley) assessed as inhibition of [14C]malonate incoporation in total fatty acids at 100 uM measured as total disintegration per g of fresh weight after 3 hr by liquid scintillation counting (reference value: 8.8 +/- 2.4%); type: functional
[25] = tested on: Hordeum vulgare; experiment: Inhibition of fatty acid synthesis in Hordeum vulgare (barley) assessed as inhibition of [14C]acetate incoporation in total fatty acids at 100 uM measured as total disintegration per g of fresh weight after 3 hr by liquid scintillation counting (reference value: 9.2 +/- 2.4%); type: functional
[26] = molecular target: T1, Acetyl-CoA carboxylase (Zea mays, UniProt Q3V4E6); experiment: Inhibition of Zea mays (maize) chloroplastic ACCase using acetyl-coA as substrate assessed as inhibition of [14C]NaHCO3 incorporation into malonyl-coA incubated for 10 min prior to substrate addition measured for 20 min by liquid scintillation counting
[27] = molecular target: T1, Acetyl-CoA carboxylase; experiment: Inhibition of Zea mays (maize) cytosolic ACCase using acetyl-coA as substrate assessed as inhibition of [14C]NaHCO3 incorporation into malonyl-coA incubated for 10 min prior to substrate addition measured for 20 min by liquid scintillation counting

T1 sequence (Q3V4E6 whole entry): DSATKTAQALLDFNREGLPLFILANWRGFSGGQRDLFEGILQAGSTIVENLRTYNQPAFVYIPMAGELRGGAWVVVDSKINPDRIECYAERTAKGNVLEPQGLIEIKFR

With Cc1sc(-c2ccc(Cl)cc2)nc1C1C(=O)CC2(CCCCC2)C1=O (configuration not stated) [Spiro-decanedione A] the inhibition [1] was “Active”, the Activity [2] was 25.3% and the Activity [3] was 16.8%. The Activity [4] was 43%, the Activity [5] was 2.3% and the Activity [6] was 8.2%. The Activity [7] was 10%, the Activity [8] was 31.2% and the Activity [9] was 33.7%. For the same compound, the Activity [10] was 18.1%, the Activity [11] was 3.4% and the Activity [12] was 15.8%. For the same compound, the Activity [13] was 24.4%, the Activity [14] was 20% and the Activity [15] was 43.8%. It also gave an Activity [16] of 18.6%, an Activity [17] of 20.5% and an Activity [18] of 8.9%. The Activity [19] was 50.5%, the Activity [20] was 0.9% and the Activity [21] was 4.6%. It also gave an Activity [22] of 12.7 ×10⁶ dpm, an Activity [23] of 14.3 ×10⁶ dpm and an Activity [24] of 9.9 ×10⁶ dpm. For the same compound, the Activity [25] was 3.6 ×10⁶ dpm, the IC50 [26] was 8 nM and the IC50 [27] was 20 nM.
